Reference: patent US8940766B2, “Methods for preventing and/or treating lysosomal storage disorders” (Amicus Therapeutics, Inc., priority 2009, dated 2015)
Changes are numbered by the printed parent chain.

Key:
[1] = target: T1, recombinant human GCase (rhGCase; Cerezyme®) (Homo sapiens, UniProt P04062, R534H); experiment: In vitro enzyme inhibition assay of rhGCase with 4-MU-β-D-Glc fluorogenic substrate; assay type: biochemical; conditions: pH 5.2; average of three independent experiments
T1 construct: purchased Genzyme Corp
T1 sequence (P04062 40-536 R534H): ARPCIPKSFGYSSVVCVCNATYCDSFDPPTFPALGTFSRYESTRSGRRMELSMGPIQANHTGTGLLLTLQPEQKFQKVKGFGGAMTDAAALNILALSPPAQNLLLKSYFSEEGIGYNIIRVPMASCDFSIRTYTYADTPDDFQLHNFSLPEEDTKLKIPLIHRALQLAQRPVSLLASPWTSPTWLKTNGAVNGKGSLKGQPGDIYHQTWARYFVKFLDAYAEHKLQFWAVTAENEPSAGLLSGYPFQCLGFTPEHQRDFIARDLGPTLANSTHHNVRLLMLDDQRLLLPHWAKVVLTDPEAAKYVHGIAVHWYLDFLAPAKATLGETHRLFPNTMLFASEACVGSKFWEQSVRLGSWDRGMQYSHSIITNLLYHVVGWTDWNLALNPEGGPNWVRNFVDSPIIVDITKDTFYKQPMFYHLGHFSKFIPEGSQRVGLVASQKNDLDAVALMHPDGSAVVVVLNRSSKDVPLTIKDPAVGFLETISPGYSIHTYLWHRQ
Experimental: The binding affinity (defined here by Ki binding constant) of GCase for small molecule pharmacological chaperones described in this document were empirically determined using enzyme inhibition assays. In brief, the enzyme inhibition assays used monitored the ability of test compound to bind and prevent the hydrolysis of a fluorogenic substrate in a concentration-dependent manner. Specifically, the enzyme activity of recombinant human GCase (rhGCase; Cerezyme®, Genzyme Corp.) was measured using the 4-methylumbelliferyl-β-D-glucopyranoside (4-MU-β-D-Glc) fluorogenic substrate in the absence or in the presence of varying amounts of each test compound. […] The enzyme inhibition assays were performed at both pH 7.0 (endoplasmic reticulum pH) and at pH 5.2 (lysosomal pH) to gain insight into the binding affinity (i.e., potency) of compounds for GCase in the endoplasmic reticulum and lysososome.
Various concentrations of test compounds were prepared in buffer “M” consisting of 50 mM sodium phosphate buffer with 0.25% sodium taurocholate at pH 7.0 and pH 5.2. Enzyme (Cerezyme®, a recombinant form of the human enzyme β-glucocerebrosidase) was also diluted in the same buffer “M” at pH 7.0 and pH 5.2. […] Fluorescence was measured on a plate reader for 1 sec/well using 355 nm excitation and 460 nm emission.

lysosomal GCase = target: T2, lysosomal GCase (Homo sapiens, UniProt P04062); experiment: In situ washout assay in fibroblasts (recovery of lysosomal GCase activity after compound removal); assay type: cell-based; conditions: fibroblasts treated at IC90 for 16-24 hours, then drug-free medium; single exponential fit
T2 construct: assayed in situ using fibroblasts established from a normal subject; endogenous in cells; host or cells: fibroblasts from a normal subject
T2 sequence (P04062 40-536): T1 sequence (P04062 40-536 R534H) with H495R
Experimental: Cells seeded in 48-well plates were incubated with the indicated concentrations of compound for 16-24 hours. For the dose-response assays, cells were incubated with the in situ substrate 5-(pentafluorobenzoylamino)fluorescein di-β-D-glucopyranoside (PFBFDβGlu) for 1 hour and subsequently lysed to determine the extent of substrate hydrolysis in the presence of compound. […] Inhibition was determined as the ratio of activity in the presence of compound to that in the absence of compound. […] Cells were washed extensively and incubated in drug-free medium to allow net compound efflux from cells. Cells were then tested for lysosomal GCase activity at 2 hour intervals over a total period of 8 hours following compound removal. The increase in activity over time was fitted with a single exponential function to determine the compound's washout time.

GCase = target: T3, GCase (Homo sapiens, UniProt P04062); experiment: Concentration-dependent increase in GCase activity (EC50, Emax); assay type: cell-based; conditions: result in words
T3 sequence (P04062 40-536): T1 sequence (P04062 40-536 R534H) with H495R

[2] = Blood brain barrier penetration after oral administration to mice; assay type: in vivo, mice (C57BL/6); conditions: single 30 mg/kg (free base equivalent) p.o. dose, FIG. 2
Experimental: For this purpose, 8-week old wild-type male mice (C57BL/6) were administered a single 30 mg/kg (free base equivalent) p.o. dose of reference or test compound by gavage (n=3 mice per time point). Dosing solutions were prepared in water. After dosing, mice were euthanized with CO2 at the following time points: 0-, 0.5-, 1-, and 4-hour post-dose. […] Similarly, brains were collected from each mouse. Plasma was derived by spinning whole blood at 2700 g for 10 minutes at 4° C. followed by storage on dry ice. Whole brains were washed in cold PBS to remove contaminating blood, blotted dry, flash frozen on dry ice, and ultimately stored at −80° C. until analysis. To prepare brain samples for analysis, 50-100 mg of tissue was homogenized in […]. Samples were then clarified by centrifugation. Next, 25 μl of the brain homogenate supernatant or 25 μl of plasma were combined with 25 μl of acetonitrile:water (95/5). […] Between 20 and 30 μl sample was injected for analysis. […] When Compound B was analyzed, Compound A was used as internal standard (150.1/130.1). For calculating drug concentrations, raw data for plasma (ng/mL) and brain (ng/g) was converted to nM using the molecular weight of respective compounds and assuming 1 g of tissue is equivalent to 1 mL volume. Concentration as a function of time was plotted in GraphPad Prism version 4.02.

With O[C@@H]1[C@@H](CCl)CNC[C@H]1O [Compound B, (3R,4R,5S)-5-(chloromethyl)piperidine-3,4-diol] the IC50 [1] was 73 ± 9 nM, the “In Situ Washout” value (lysosomal GCase) was 2.9 ± 0.22 h and the “effect on GCase activity” value (GCase) was “concentration-dependent increase in GCase activity”. For the same molecule, the “enhancement of enzyme activity compared to IFG-tartrate” value (GCase) was “enhanced enzyme activity to the same maximum level at much lower concentration” and the “brain levels compared to Compound A” value [2] was “even higher levels of Compound B were detected in brain than that observed following administration of the hydrochloride salt form of Compound A”.
